biological target: T1, URAT1 (Homo sapiens, UniProt Q96S37); assay: URAT1-model assay (14C-uric acid transport in HEK293/URAT1-model cells); conditions: 125 μM 14C-uric acid, 10 minutes at room temperature, read-out: URAT-1 model cell-based C14 EC50 Ranking
T1 sequence (Q96S37 1-553): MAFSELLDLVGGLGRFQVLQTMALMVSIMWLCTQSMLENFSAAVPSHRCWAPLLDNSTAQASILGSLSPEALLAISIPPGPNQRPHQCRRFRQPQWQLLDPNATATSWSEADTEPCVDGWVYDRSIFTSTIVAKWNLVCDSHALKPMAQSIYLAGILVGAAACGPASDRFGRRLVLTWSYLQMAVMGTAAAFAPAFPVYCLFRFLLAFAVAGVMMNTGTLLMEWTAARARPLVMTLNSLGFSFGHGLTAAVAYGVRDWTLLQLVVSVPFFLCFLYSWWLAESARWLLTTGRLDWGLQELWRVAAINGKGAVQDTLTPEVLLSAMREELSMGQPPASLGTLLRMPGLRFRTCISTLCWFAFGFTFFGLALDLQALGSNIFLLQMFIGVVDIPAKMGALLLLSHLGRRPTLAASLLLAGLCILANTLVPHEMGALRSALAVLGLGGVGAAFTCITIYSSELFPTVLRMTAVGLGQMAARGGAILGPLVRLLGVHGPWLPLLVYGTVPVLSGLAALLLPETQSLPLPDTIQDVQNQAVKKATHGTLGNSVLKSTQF
Method: HEK293 human embryonic kidney cells (ATCC# CRL-1573) were propagated in EMEM tissue culture medium as described by ATCC in an atmosphere of 5% CO2 and 95% air. Transfections of HEK293 cells with a model URAT1 construct was performed using L2000 transfection reagent (Invitrogen) as described by the manufacturer. After 24 h the transfected cells were split into 10 cm tissue culture plates and grown for 1 day after which the medium was replaced with fresh growth medium containing G418 (Gibco) at 0.5 mg/ml final concentration. Drug-resistant colonies were selected after approximately 8 days and then tested for ^14C-uric acid transport activity. The HEK293/URAT1-model cells are plated on Poly-D-Lysine Coated 96-well Plates at a density of 125,000 cells per well.
Cells were grown overnight (20-26 hours) at 37° C. in an incubator. Plates were allowed to come to room temperature and media was washed out with one wash of 250 μl of Wash Buffer (125 mM Na Gluconate, 10 mM Hepes ph 7.3). Compound or vehicle is added in assay buffer with ^14C-Uric Acid for a final concentration of 125 μM Uric Acid with a specific activity of 54 mCi/mmol. Assay Buffer is 125 mM Sodium Gluconate, 4.8 mM Potassium Gluconate, 1.2 mM Potassium phosphate, monobasic, 1.2 mM magnesium sulfate, 1.3 mM Ca Gluconate, 5.6 mM Glucose, 25 mM HEPES, pH 7.3. Plates were incubated at room temperature for 10 minutes then washed 3 times with 50 μl Wash Buffer and 3 times with 250 μl Wash Buffer. Microscint 20 Scintillation Fluid was added and plates were incubated overnight at room temperature to equilibrate. Plates are then read on the TopCount Plate Reader and an EC50 value generated. (See Enomoto et al, Nature, 2002, 417, 447-451 and Anzai et al, J. Biol. Chem., 2004, 279, 45942-45950.)
Compounds as described herein were tested according to the protocol described above for the URAT-1 model assay; the results are shown in the table below wherein: […]

Compound	EC50
CC(C)(Sc1ccccc1-c1ccc(C(N)=O)cc1)C(=O)O [Example 1B]	500 to 10000 nM
O=C(O)C1(Sc2ccccc2-c2ccc(CO)cc2)CCC1 [Example 1E]	50 to 500 nM
O=C(O)C1(Sc2ccc(F)cc2-c2ccc(C3CC3)cc2)CCC1 [Example 1F]	500 to 10000 nM

Second part, the compound after the results:

EC50	Compound
50 to 500 nM	CC(C)(Sc1ccccc1-c1ccc(CO)cc1)C(=O)O [Example 1C]
1 to 50 nM	N#Cc1ccc(-c2ccccc2SC2(C(=O)O)CCC2)cc1 [Example 1D]
1 to 50 nM	N#Cc1ccc(-c2cc(F)ccc2SC2(C(=O)O)CCC2)cc1 [Example 1G]

Reference: US9212135B2, “Phenylthioacetate compounds, compositions and methods of use” (Ardea Biosciences, Inc., priority 2010, dated 2015)
